Experimental data as given in patent publication US11753622B2, “Medium supplement to increase the efficiency of oocyte maturation and embryo culture in vitro” (The Curators of the University of Missouri, priority 2016, dated 2023).
Marks after values point to notes of the source that are not given here.

Experiments:
[1] = tested on: oocyte meiotic maturation; assay: Kinase inhibitors in FGF2, LIF and IGF-1 supplemented medium, oocyte meiotic maturation; format: cell-based, porcine; conditions: PD173074 10 μM, JAK inhibitor I 6 μM, OSI-906 10 μM, PD0325901 10 μM
Description: FIG. 6. Supplementation of FGF2, LIF and IGF-1 (FLI) regulates the changes of MAPK1/3 activation in cumulus cells (CCs) during IVM. […] Each CC sample was pooled from 50 cumulus oocyte complexes (COCs). This experiment was replicated four times. Asterisk denotes a significant difference between control and treatment, P<0.05. […] The experiments were replicated four times with 1208 oocytes. Different letters denote significant differences, P<0.05.

porcine oocytes = assay: Porcine oocyte in vitro maturation (IVM) in cytokine-supplemented medium, then IVF and culture to blastocyst; format: cell-based; conditions: for efficiency of producing nuclear matured (MII) oocytes / oocyte developmental competence (ability of zygotes to form blastocysts after IVF): single cytokine in IVM medium; for efficiency of producing nuclear matured (MII) oocytes: 42 hr, versus control; for oocyte developmental competence (ability of zygotes to form blastocysts after IVF): 6 days culture
Description: The individual effects of FGF2, LIF, and IGF-1 on maturation of oocytes derived from pre-pubertal pre-pubertal gilts after commercial slaughter were examined after each had been added to an otherwise standard, chemically-defined medium comprised of TCM 199 supplemented with 10 ng/ml EGF, 0.5 μg/ml LH, 0.5 μg/ml FSH, 3.05 mM glucose, 0.91 mM sodium pyruvate, 0.57 mM cysteine, 10 ng/mL gentamicin, and 0.1% polyvinyl alcohol (PVA). After 42 hr in the oocyte maturation medium with the single cytokine addition, oocytes were in vitro fertilized and the resulting zygotes were cultured under standard in vitro culture conditions for 6 days. […] (FIG. 2). Optimal concentrations of FGF2 (40 ng/ml) and LIF (20 ng/ml) were added in combination to the standard IVM medium. The combination of FGF2 and LIF improved nuclear maturation beyond that achieved with the single factors in Example 1 (Table 1). […] The effects of adding the IGF-1 at the optimal concentration of 20 ng/ml in combination with the other two cytokines to the IVM medium was then examined. The combination of all three cytokines (FGF2, LIF, and IGF-1) increased oocyte nuclear maturation to 89%, as compared to 55% in controls (FIG. 5 and Table 2, column 4). After IVF, zygotes from oocytes cultured in medium comprising FGF2, LIF, and IGF-1 advanced to the blastocyst stage more efficiently than controls (49.7% versus 38%). […] Oocytes derived from medium comprising FGF2, LIF, and IGF-1 also provided improved production of blastocysts following somatic cell nuclear transfer (SCNT), which requires removal of nuclear material from the egg followed by fusion of the enucleated oocyte with a somatic donor cell (FIG. 5). [table]

[2] = Table 1, after IVF, means ± SEM
[3] = Table 1, porcine IVM medium, FGF2 40 ng/ml, LIF 20 ng/ml, means ± SEM
[4] = Table 2, IVF embryos cultured in MU1-PZM six days, means ± SEM

| Compound | oocyte meiotic maturation [1] | efficiency of producing nuclear matured (MII) oocytes (porcine oocytes) | oocyte developmental competence (ability of zygotes to form blastocysts after IVF) (porcine oocytes) | other results |
| --- | --- | --- | --- | --- |
| C[C@]1(O)C[C@@H](c2nc(-c3ccc4ccc(-c5ccccc5)nc4c3)c3c(N)nccn32)C1 [OSI-906] | more moderate declines | – | – | – |
| CCN(CC)CCCCNc1ncc2cc(-c3cc(OC)cc(OC)c3)c(NC(=O)NC(C)(C)C)nc2n1 [PD173074] | more moderate declines | – | – | – |
| O=C(NOC[C@H](O)CO)c1ccc(F)c(F)c1Nc1ccc(I)cc1F [PD0325901] | almost complete block of meiotic maturation | – | – | – |
| JAK inhibitor I | more moderate declines | – | – | – |
| fibroblast growth factor 2 [FGF2] | – | improved | none of the cytokines improved | Blastocysts/Oocyte (%) (porcine oocytes; [2]): 25.6 ± 3.6^ab %; Blastocysts/Zygote (%) (porcine oocytes; [2]): 35.1 ± 4.9^a %; Nuclear Maturation (%) (porcine oocytes; [3]): 73.2 ± 3.4^a % |
| insulin-like growth factor 1 [IGF-1] | – | improved | none of the cytokines improved | Blastocysts/Oocyte (%) (porcine oocytes; [4]): 33.6 ± 5.5^b %; Blastocysts/Zygote (%) (porcine oocytes; [4]): 44.7 ± 6.7^ab %; Nuclear Maturation (%) (porcine oocytes; Table 2, TCM-199 maturation medium, FGF2 40, LIF 20, IGF-1 20 ng/ml, means ± SEM): 74.8 ± 3.6^b %; Total blastocyst cell number (porcine oocytes; Table 2, day 6 blastocysts, means ± SEM): 34.7 ± 7.8^b |
| leukemia inhibitory factor [LIF] | – | improved | none of the cytokines improved | Blastocysts/Oocyte (%) (porcine oocytes; [2]): 19.6 ± 3.6^ab %; Blastocysts/Zygote (%) (porcine oocytes; [2]): 25.4 ± 4.0^b %; Nuclear Maturation (%) (porcine oocytes; [3]): 75.7 ± 3.1^a % |
